Test results: ChEMBL document CHEMBL2440076, “New triarylpyrazoles as broad-spectrum anticancer agents: design, synthesis, and biological evaluation” (Eur J Med Chem, 2013)

Key:
Format in all cases: functional
786-0 = experiment: Growth inhibition of human 786-0 cells assessed as cell growth at 10^-6 M after 48 hrs by sulforhodamine B assay; details: 786-0, 48 h, read-out: Activity
RPMI-8226 = experiment: Growth inhibition of human RPMI8226 cells assessed as cell growth at 10^-7 M after 48 hrs by sulforhodamine B assay; details: RPMI-8226, 48 h, read-out: Activity
CAKI-1 [1] = experiment: Growth inhibition of human CAKI-1 cells assessed as cell growth at 10^-4 M after 48 hrs by sulforhodamine B assay; details: CAKI-1, 48 h, read-out: Activity
U-251 [2] = experiment: Growth inhibition of human U251 cells assessed as cell growth at 10^-4 M after 48 hrs by sulforhodamine B assay; details: U-251, 48 h, read-out: Activity
PC-3 = experiment: Growth inhibition of human PC3 cells assessed as cell growth at 10^-6 M after 48 hrs by sulforhodamine B assay; details: PC-3, 48 h, read-out: Activity
OVCAR-5 [3] = experiment: Growth inhibition of human OVCAR5 cells assessed as cell growth at 10^-4 M after 48 hrs by sulforhodamine B assay; details: OVCAR-5, 48 h, read-out: Activity
UO-31 = experiment: Growth inhibition of human UO31 cells assessed as cell growth at 10^-5 M after 48 hrs by sulforhodamine B assay; details: UO-31, 48 h, read-out: Activity
[4] = Growth inhibition of human Hs 578T cells assessed as cell growth at 10^-5 M after 48 hrs by sulforhodamine B assay; details: read-out: Activity
SF-268 = experiment: Growth inhibition of human SF268 cells assessed as cell growth at 10^-7 M after 48 hrs by sulforhodamine B assay; details: SF-268, 48 h, read-out: Activity
OVCAR-5 [5] = experiment: Growth inhibition of human OVCAR5 cells assessed as cell growth at 10^-6 M after 48 hrs by sulforhodamine B assay; details: OVCAR-5, 48 h, read-out: Activity
HOP-62 [6] = experiment: Growth inhibition of human HOP62 cells assessed as cell growth at 10^-6 M after 48 hrs by sulforhodamine B assay; details: HOP-62, 48 h, read-out: Activity
U-251 [7] = experiment: Growth inhibition of human U251 cells assessed as cell growth at 10^-8 M after 48 hrs by sulforhodamine B assay; details: U-251, 48 h, read-out: Activity
DU-145 = experiment: Growth inhibition of human DU145 cells assessed as cell growth at 10^-7 M after 48 hrs by sulforhodamine B assay; details: DU-145, 48 h, read-out: Activity
COLO 205 = experiment: Growth inhibition of human COLO205 cells assessed as cell growth at 10^-5 M after 48 hrs by sulforhodamine B assay; details: COLO 205, 48 h, read-out: Activity
SR = experiment: Growth inhibition of human SR cells assessed as cell growth at 10^-4 M after 48 hrs by sulforhodamine B assay; details: read-out: Activity
NCI-H23 [8] = experiment: Growth inhibition of human NCI-H23 cells assessed as cell growth at 10^-7 M after 48 hrs by sulforhodamine B assay; details: NCI-H23, 48 h, read-out: Activity
BT-549 = experiment: Growth inhibition of human BT549 cells assessed as cell growth at 10^-7 M after 48 hrs by sulforhodamine B assay; details: BT-549, 48 h, read-out: Activity
OVCAR-8 = experiment: Growth inhibition of human OVCAR8 cells assessed as cell growth at 10^-5 M after 48 hrs by sulforhodamine B assay; details: OVCAR-8, 48 h, read-out: Activity
CAKI-1 [9] = experiment: Growth inhibition of human CAKI-1 cells assessed as cell growth at 10^-8 M after 48 hrs by sulforhodamine B assay; details: CAKI-1, 48 h, read-out: Activity
RXF 393 = experiment: Growth inhibition of human RXF393 cells assessed as cell growth at 10^-8 M after 48 hrs by sulforhodamine B assay; details: RXF 393, 48 h, read-out: Activity
KM12 = experiment: Growth inhibition of human KM12 cells assessed as cell growth at 10^-8 M after 48 hrs by sulforhodamine B assay; details: KM12, 48 h, read-out: Activity
HOP-92 = experiment: Growth inhibition of human HOP92 cells assessed as cell growth at 10^-7 M after 48 hrs by sulforhodamine B assay; details: HOP-92, 48 h, read-out: Activity
K562 = experiment: Growth inhibition of human K562 cells assessed as cell growth at 10^-5 M after 48 hrs by sulforhodamine B assay; details: K562, 48 h, read-out: Activity
SNB-75 = experiment: Growth inhibition of human SNB75 cells assessed as cell growth at 10^-7 M after 48 hrs by sulforhodamine B assay; details: SNB-75, 48 h, read-out: Activity
A549 = experiment: Growth inhibition of human A549/ATCC cells assessed as cell growth at 10^-7 M after 48 hrs by sulforhodamine B assay; details: A549, 48 h, read-out: Activity
TK-10 [10] = experiment: Growth inhibition of human TK10 cells assessed as cell growth at 10^-8 M after 48 hrs by sulforhodamine B assay; details: TK-10, 48 h, read-out: Activity
OVCAR-4 [11] = experiment: Growth inhibition of human OVCAR4 cells assessed as cell growth at 10^-7 M after 48 hrs by sulforhodamine B assay; details: OVCAR-4, 48 h, read-out: Activity
SK-MEL-28 [12] = experiment: Growth inhibition of human SK-MEL-28 cells assessed as cell growth at 10^-4 M after 48 hrs by sulforhodamine B assay; details: SK-MEL-28, 48 h, read-out: Activity
OVCAR-4 [13] = experiment: Growth inhibition of human OVCAR4 cells assessed as cell growth at 10^-5 M after 48 hrs by sulforhodamine B assay; details: OVCAR-4, 48 h, read-out: Activity
NCI-H23 [14] = experiment: Growth inhibition of human NCI-H23 cells assessed as cell growth at 10^-4 M after 48 hrs by sulforhodamine B assay; details: NCI-H23, 48 h, read-out: Activity
TK-10 [15] = experiment: Growth inhibition of human TK10 cells assessed as cell growth at 10^-7 M after 48 hrs by sulforhodamine B assay; details: TK-10, 48 h, read-out: Activity
NCI-H322M = experiment: Growth inhibition of human NCI-H322M cells assessed as cell growth at 10^-8 M after 48 hrs by sulforhodamine B assay; details: read-out: Activity
SK-MEL-28 [16] = experiment: Growth inhibition of human SK-MEL-28 cells assessed as cell growth at 10^-7 M after 48 hrs by sulforhodamine B assay; details: SK-MEL-28, 48 h, read-out: Activity
NCI-H522 = experiment: Growth inhibition of human NCI-H522 cells assessed as cell growth at 10^-8 M after 48 hrs by sulforhodamine B assay; details: NCI-H522, 48 h, read-out: Activity
HOP-62 [17] = experiment: Growth inhibition of human HOP62 cells assessed as cell growth at 10^-4 M after 48 hrs by sulforhodamine B assay; details: HOP-62, 48 h, read-out: Activity
SK-MEL-2 = experiment: Growth inhibition of human SK-MEL-2 cells assessed as cell growth at 10^-5 M after 48 hrs by sulforhodamine B assay; details: SK-MEL-2, 48 h, read-out: Activity
LOX IMVI = experiment: Growth inhibition of human LOXIMVI cells assessed as cell growth at 10^-8 M after 48 hrs by sulforhodamine B assay; details: read-out: Activity

Compound	growth at 1 µM (786-0) [%]	growth at 0.1 µM (RPMI-8226) [%]	growth at 100 µM (CAKI-1 [1]) [%]	growth at 100 µM (U-251 [2]) [%]	growth at 1 µM (PC-3) [%]	growth at 100 µM (OVCAR-5 [3]) [%]	growth at 10 µM (UO-31) [%]	growth at 10 µM [4] [%]	growth at 0.1 µM (SF-268) [%]	growth at 1 µM (OVCAR-5 [5]) [%]	growth at 1 µM (HOP-62 [6]) [%]	growth at 0.01 µM (U-251 [7]) [%]	growth at 0.1 µM (DU-145) [%]	growth at 10 µM (COLO 205) [%]	growth at 100 µM (SR) [%]	growth at 0.1 µM (NCI-H23 [8]) [%]	growth at 0.1 µM (BT-549) [%]	growth at 10 µM (OVCAR-8) [%]	growth at 0.01 µM (CAKI-1 [9]) [%]	growth at 0.01 µM (RXF 393) [%]	also measured
COc1cc(-c2nn(-c3cccc(NC(=O)c4ccc(N5CCOCC5)c(C(F)(F)F)c4)c3)cc2-c2ccncc2)ccc1Cl	45	88	-4	-59	15	2	-5	3	91	57	38	101	98	-84	6	92	95	3	94	118	growth at 0.01 µM (KM12): 108%; growth at 0.1 µM (HOP-92): 56%; growth at 10 µM (K562): 2%; growth at 0.1 µM (SNB-75): 75%; growth at 0.1 µM (A549): 69%; growth at 0.01 µM (TK-10 [10]): 99%; growth at 0.1 µM (OVCAR-4 [11]): 92%; growth at 100 µM (SK-MEL-28 [12]): 13%; growth at 10 µM (OVCAR-4 [13]): 32%; growth at 100 µM (NCI-H23 [14]): -9%; growth at 0.1 µM (TK-10 [15]): 106%; growth at 0.01 µM (NCI-H322M): 103%; growth at 0.1 µM (SK-MEL-28 [16]): 68%; growth at 0.01 µM (NCI-H522): 97%; growth at 100 µM (HOP-62 [17]): 9%; growth at 10 µM (SK-MEL-2): -2%; growth at 0.01 µM (LOX IMVI): 98%
COc1cc(-c2nn(-c3cccc(NC(=O)c4ccccc4)c3)cc2-c2ccncc2)ccc1Cl	56	96	7	-18	29	8	18	18	94	87	72	96	100	-31	12	91	88	58	94	100	growth at 0.01 µM (KM12): 101%; growth at 0.1 µM (HOP-92): 86%; growth at 10 µM (K562): 10%; growth at 0.1 µM (SNB-75): 86%; growth at 0.1 µM (A549): 94%; growth at 0.01 µM (TK-10 [10]): 93%; growth at 0.1 µM (OVCAR-4 [11]): 95%; growth at 100 µM (SK-MEL-28 [12]): 26%; growth at 10 µM (OVCAR-4 [13]): 33%; growth at 100 µM (NCI-H23 [14]): 18%; growth at 0.1 µM (TK-10 [15]): 97%; growth at 0.01 µM (NCI-H322M): 98%; growth at 0.1 µM (SK-MEL-28 [16]): 94%; growth at 0.01 µM (NCI-H522): 91%; growth at 100 µM (HOP-62 [17]): 31%; growth at 10 µM (SK-MEL-2): -10%; growth at 0.01 µM (LOX IMVI): 94%
